Tests used:
[1] = test system: B6^dom1-specific T-cells (C3H.SW target cells coated with synthetic peptides); conditions: previously shown; cited from earlier work
[2] = test system: B6^dom1-specific T-cells (C3H.SW target cells coated with synthetic peptides); assay: 51Cr release cytotoxicity assay: peptide recognition by C3H.SW anti-C57BL/6 CTLs; assay type: cell-based, mouse; conditions: effector to target ratio 50:1, FIG. 1
Protocol: Cytotoxic activity was assessed in a standard ^51Cr release assay (Pion et al., 1997. Eur. J. Immunol. 27:421-430). Target blast cells, prepared by culturing C3H.SW spleen cells (3×10^6/ml) with 5 μg/ml of Concanavalin A (Con A; Sigma Chemical Co., St-Louis, Mo.) for 48 hours, were labeled with 100 μCi Na2^51Cr (Dupont Co., Wilmington, Del.) for 90 minutes, sensitized with synthetic peptides for 90 minutes, then mixed with C3H.SW anti-C57BL/6 effector cells at a 50:1 effector to target ratio. Cells were then incubated for 4 hours at 37° C. in a humidified atmosphere of 5% CO2. Afterwards, supernatants were harvested and counted in a gamma counter. All tests were done in triplicate. Spontaneous release was below 15%. Results are expressed as a percentage of specific lysis calculated as follows: % specific lysis=100×(experimental release−spontaneous release)/(maximum release−spontaneous release).

In the case of AAPDNRETF, the “Recognition by B6^dom1-specific T-cells” value [1] is given as “recognised by B6^dom1-specific T-cells”.

In the case of “KAPDNRDTL [synthetic peptide; product of the putative B6^dom1 allele found in B6^dom1− strains of mice]”, the “Recognition by B6^dom1-specific CTLs (specific lysis of peptide-coated C3H.SW targets)” value ([2]; peptide even at 10^−5 M) was “not recognised”.

In the case of KAPDNRETL [synthetic peptide], the “Recognition by B6^dom1-specific CTLs (specific lysis of peptide-coated C3H.SW targets)” value ([2]; peptide at 10^−8 M) was “recognised more efficiently than the AAPDNRETF peptide”.
